Experimental data as given in patent US7834144B2 (priority 2005, dated 2010).
Values joined by “and” are separate entries in the source; they are usually repeats but may differ in a detail not shown here. Equal values may be shown once. Read-outs that look alike come from different tables or passages of the source. Where a SMILES comes first, the peptide text is derived from it. Where no end group is shown, it is not given here. [ ]: non-standard residue; d: D form. The star is where a group is joined. ξ: configuration not given here. Biotinyl(4ξ) = O=C1N[C@H]2CSC(CCCCC(=O)*)[C@H]2N1; Nspe = C[C@H](NCC(=O)O)c1ccccc1; NhArg = N=C(N)NCCCCNCC(=O)O; Nmpe = not defined here; Nae = not defined here; Nlys = NCCCCNCC(=O)O

Experiments:
PrP^Sc = PrP^Sc (Homo sapiens, UniProt P04156); type: binding; details: for Exp. Mean (1 ul 10% CJD BH): streptavidin beads
PrPc = PrPc (Homo sapiens, UniProt P04156); type: binding
[1] = Table 5, 1 ul 10% CJD BH, 70% human plasma
[2] = Table 5, 70% human plasma, ELISA signal
[3] = Table 5, 70% human plasma, streptavidin beads, ELISA signal
[4] = Table 6, CJD brain homogenate in 20% human plasma
[5] = Table 6, CJD brain homogenate in 20% human plasma, ELISA signal

CC(=O)N(CCCCN)CC(=O)N(CC(=O)N(CCCCN)CC(=O)N(CCCCN)CC(=O)N(CC(=O)N(CCCCN)CC(=O)N[C@@H](CCCCNC(=O)CCCCC1SC[C@@H]2NC(=O)N[C@H]12)C(N)=O)[C@@H](C)c1ccccc1)[C@@H](C)c1ccccc1 (some centres unmarked) [Peptoid Reagent X] (Ac-[Nlys][Nspe][Nlys][Nlys][Nspe][Nlys]K(Biotinyl(4ξ))-NH2)
Exp. Mean (as % of 68) (PrP^Sc; [1]): 114.5% | Exp. Mean (1 ul 10% CJD BH) (PrP^Sc; [2]): 478.7 | Control Mean (1 ul 10% Normal BH) (PrPc; [3]): 7.28

(GGG)KKRPKPGG [compound 68, reference compound]
Exp. Mean (as % of 68) (PrP^Sc): 100.0% and 100.1% | Mean (PrP^Sc): 84.98 and 137.9 | Mean (% of 68) (PrP^Sc): 100.0% | Control Mean (1 ul 10% Normal BH) (PrPc): 19.2

CC(=O)N(CCCCN)CC(=O)N(CCCCN)CC(=O)N(CCCCN)CC(=O)N(CC(=O)N(CCCCN)CC(=O)N(CC(=O)N[C@@H](CCCCNC(=O)CCCCC1SC[C@@H]2NC(=O)N[C@H]12)C(N)=O)[C@@H](C)c1ccccc1)[C@@H](C)c1ccccc1 (some centres unmarked) [Peptoid Reagent IX] (Ac-[Nlys][Nlys][Nlys][Nspe][Nlys][Nspe]K(Biotinyl(4ξ))-NH2)
Exp. Mean (as % of 68) (PrP^Sc; Table 4, 1 ul 10% CJD BH, 70% human plasma): 121.9% | Exp. Mean (1 ul 10% CJD BH) (PrP^Sc; Table 4, 70% human plasma, ELISA signal): 1039.4 | Exp. Mean (as % of 68) (PrP^Sc; [1]): 126.5% | Exp. Mean (1 ul 10% CJD BH) (PrP^Sc; [2]): 528.8 | Control Mean (1 ul 10% Normal BH) (PrPc; Table 4, 70% human plasma, streptavidin beads, ELISA signal): 20.1 | Control Mean (1 ul 10% Normal BH) (PrPc; [3]): 9.47

Peptoid Reagent III: peptoid reagent comprising SEQ ID NO: 231, Nae-Nmpe-Nmpe-Nae-Nmpe-Nmpe-Nae-Nmpe-Nmpe ([Nae][Nmpe][Nmpe][Nae][Nmpe][Nmpe][Nae][Nmpe][Nmpe]; reading uncertain; also: printed as Nae-Nmpe-Nmpe-Nae-Nmpe-Nmpe-Nae-Nmpe-Nmpe)
Mean (% of 68) (PrP^Sc; [4]): 2.15% | Mean (PrP^Sc; [5]): 1.83

CC(=O)N(CCCCN)CC(=O)N(CCCCN)CC(=O)N(CCCCN)CC(=O)N(CCCCN)CC(=O)N(CCCCN)CC(=O)N[C@@H](CCCCNC(=O)CCCCC1SC[C@@H]2NC(=O)N[C@H]12)C(N)=O (some centres unmarked) [Peptoid Reagent I]
Mean (% of 68) (PrP^Sc; [4]): 104.31% | Mean (PrP^Sc; [5]): 88.64 | CJD Mean (PrP^Sc; Table 8, 2 microliters of 10% CJD brain homogenate in 70% human plasma): 124.47 | Normal Mean (PrPc; Table 8, 2 microliters of 10% normal brain homogenate in 70% human plasma): 3.31

CC(=O)N(CCCCN)CC(=O)N(CCCCN)CC(=O)N(CCCCNC(=N)N)CC(=O)N(CC(=O)N(CCCCN)CC(=O)N(CC(=O)N[C@@H](CCCCNC(=O)CCCCC1SC[C@@H]2NC(=O)N[C@H]12)C(N)=O)[C@@H](C)c1ccccc1)[C@@H](C)c1ccccc1 (some centres unmarked) [Peptoid Reagent II] (Ac-[Nlys][Nlys][NhArg][Nspe][Nlys][Nspe]K(Biotinyl(4ξ))-NH2)
Exp. Mean (as % of 68) (PrP^Sc; [1]): 110.8% | Exp. Mean (1 ul 10% CJD BH) (PrP^Sc; [2]): 463.5 | Mean (% of 68) (PrP^Sc; [4]): 124.85% | Mean (PrP^Sc; [5]): 106.10 | Control Mean (1 ul 10% Normal BH) (PrPc; [3]): 7.02

(GGG)QWNKPSKPKTN [compound 14, reference compound]
Mean (PrP^Sc): 4.74 | Mean (% of 68) (PrP^Sc): 5.58%
